Source: US20230416199A1, “INHIBITORS OF AMINO ACID TRANSPORT” (ICAHN SCHOOL OF MEDICINE AT MOUNT SINAI, priority 2020, published 2023)

Columns and labels:
Assay type in all cases: cell-based
hASCT2 [1] = molecular target: T1, hASCT2 (Homo sapiens, UniProt Q15758); test: Competition experiment with alanine, hASCT2; conditions: 0.5 mM ala, first entry of the cell
T1 construct: expressed in transfected cells; host or cells: HEK293 (ATCC CRL-11268), transient transfection
T1 sequence (Q15758 1-541): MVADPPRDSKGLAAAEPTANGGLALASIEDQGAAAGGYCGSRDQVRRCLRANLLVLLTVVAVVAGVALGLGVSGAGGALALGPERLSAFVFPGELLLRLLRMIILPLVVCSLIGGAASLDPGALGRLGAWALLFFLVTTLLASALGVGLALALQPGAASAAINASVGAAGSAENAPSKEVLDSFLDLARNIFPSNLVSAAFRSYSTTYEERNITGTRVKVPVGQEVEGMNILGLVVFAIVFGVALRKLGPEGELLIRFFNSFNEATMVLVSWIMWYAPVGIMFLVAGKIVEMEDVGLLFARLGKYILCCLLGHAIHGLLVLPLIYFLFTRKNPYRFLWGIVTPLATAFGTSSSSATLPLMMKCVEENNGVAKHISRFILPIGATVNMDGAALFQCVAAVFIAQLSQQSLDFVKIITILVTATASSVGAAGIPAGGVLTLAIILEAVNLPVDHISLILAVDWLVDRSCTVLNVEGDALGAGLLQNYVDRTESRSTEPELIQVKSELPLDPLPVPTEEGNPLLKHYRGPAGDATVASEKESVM

rASCT2 [2] = molecular target: T2, rASCT2 (Rattus norvegicus, UniProt D3ZJ25); test: Competition experiment with alanine, rASCT2; conditions: 0.5 mM ala, second entry of the cell
T2 construct: expressed in transfected cells; host or cells: HEK293 (ATCC CRL-11268), transient transfection
T2 sequence (D3ZJ25 1-555): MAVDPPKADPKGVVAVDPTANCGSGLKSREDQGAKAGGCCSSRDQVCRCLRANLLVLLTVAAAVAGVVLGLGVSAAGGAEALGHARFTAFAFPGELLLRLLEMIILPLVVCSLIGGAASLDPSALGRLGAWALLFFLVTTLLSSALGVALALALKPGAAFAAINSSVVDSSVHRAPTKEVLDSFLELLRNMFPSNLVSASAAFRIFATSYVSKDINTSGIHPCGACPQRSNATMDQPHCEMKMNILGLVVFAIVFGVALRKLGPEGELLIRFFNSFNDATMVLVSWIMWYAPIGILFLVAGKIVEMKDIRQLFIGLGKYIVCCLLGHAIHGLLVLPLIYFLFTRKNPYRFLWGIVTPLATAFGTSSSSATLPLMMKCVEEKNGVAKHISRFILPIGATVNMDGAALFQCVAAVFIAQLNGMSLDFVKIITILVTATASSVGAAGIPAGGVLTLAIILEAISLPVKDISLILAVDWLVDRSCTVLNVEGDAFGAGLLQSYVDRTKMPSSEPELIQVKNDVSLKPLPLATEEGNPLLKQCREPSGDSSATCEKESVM

EAAT2 = molecular target: T3, EAAT2 (Homo sapiens, UniProt P43004); test: Electrophysiology specificity experiment in transfected HEK293 cells, EAAT2; conditions: apparent Ki, HEK293, internal solution 10 mM glutamate, mean ± SD; read-out: Ki EAAT2
T3 construct: expressed in transfected cells; host or cells: HEK293 (ATCC CRL-11268), transient transfection
T3 sequence (P43004 whole entry, species assumed): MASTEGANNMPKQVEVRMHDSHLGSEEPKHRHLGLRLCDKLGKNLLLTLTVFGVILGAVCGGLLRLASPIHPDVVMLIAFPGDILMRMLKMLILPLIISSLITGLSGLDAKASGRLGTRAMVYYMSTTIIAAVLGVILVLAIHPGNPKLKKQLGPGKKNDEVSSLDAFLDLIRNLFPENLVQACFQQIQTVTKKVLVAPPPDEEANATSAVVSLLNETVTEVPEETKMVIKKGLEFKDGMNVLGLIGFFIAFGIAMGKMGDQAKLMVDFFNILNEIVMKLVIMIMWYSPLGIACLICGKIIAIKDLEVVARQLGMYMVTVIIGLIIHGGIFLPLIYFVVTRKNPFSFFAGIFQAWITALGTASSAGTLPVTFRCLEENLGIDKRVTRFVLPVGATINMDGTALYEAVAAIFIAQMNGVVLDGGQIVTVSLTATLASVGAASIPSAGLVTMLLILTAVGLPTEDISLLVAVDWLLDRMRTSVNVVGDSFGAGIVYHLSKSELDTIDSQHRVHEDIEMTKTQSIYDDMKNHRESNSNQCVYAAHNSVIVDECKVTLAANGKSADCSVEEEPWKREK
Method: (§1) Human embryonic kidney 293 (HEK293, ATCC CRL-11268) cells were cultured in DMEM media supplemented with 10% (v v) fetal bovine serum (FBS), 2 mM glutamine, 1% penicillin streptomycin solution, 1 mM sodium pyruvate and non-essential amino acids. Cells were maintained at 37° C. in a fully humidified atmosphere containing 5% CO2. rASCT2, hASCT2, hASCT1, EAAT1, EAAT2, EAAC1, EAAT5 and YFP complementary DNAs were each used to transiently transfect HEK293 using POLYPLUS Jet-prime transfection reagent. Cells were analyzed using electrophysiological techniques 24-40 hours after transfection.
(§2) Stock solutions of inhibitor was prepared in dimethyl sulfoxide (DMSO) up to 100 mM. Dilutions to working concentrations were made using external buffer. […] For rASCT2, hASCT2 and hASCT1, external buffer contained 140 mM NaCl, 2 mM MgCl2, 2 mM CaCl2), and 10 mM HEPES, pH 7.40 while internal pipette solution comprised of 130 mM NaSCN, 2 mM MgCl2, 10 mM EGTA, 10 mM HEPES and 10 mM alanine, pH 7.40. For specificity experiments with EAAT1, EAAT2, EAAC1 and EAAT5, internal solution contained 10 mM glutamate instead of alanine. Compounds were applied to HEK293 cells expressing DNA of interest suspended from a current recording electrode in whole cell configuration through a rapid solution exchange device. Cells are immersed in external buffer bath used to dissolve the inhibitors. The open pipette resistance was between 3 and 6 MΩ. Series resistance was not compensated in these experiments due to relatively small currents. Currents traces were recorded using an Adams and List EPC7 amplifier and digitized using a Molecular Devices Digidata A/D converter.
(§3) Linear and nonlinear curve fitting of the experimental data were analyzed using MicroCal Origin software. Nonlinear dose-response relationships were fitted with a Michaelis-Menten-like equation to obtain apparent Ki values in the absence of substrate (see TABLE 2 for Ki values). The figures show representative current traces and dose-response curves for hACST2 and rASCT2, used to obtain Ki values in TABLE 2 for compound SN 40. At least four experiments were performed with at least three different cells. Error bars in all graphs, e.g., in FIG. 1B and FIG. 1C and tables (Ki values) represent mean±SD.

rASCT2 [3] = molecular target: T2, rASCT2; test: Electrophysiology (whole-cell current recording) of transfected HEK293 cells, rASCT2; conditions: apparent Ki in the absence of substrate, HEK293, mean ± SD; read-out: Ki rASCT2
Method: as §1, §2, §3

EAAT1 = molecular target: T4, EAAT1 (Homo sapiens, UniProt P43003); test: Electrophysiology specificity experiment in transfected HEK293 cells, EAAT1; conditions: apparent Ki, HEK293, internal solution 10 mM glutamate, mean ± SD
T4 construct: expressed in transfected cells; host or cells: HEK293 (ATCC CRL-11268), transient transfection
T4 sequence (P43003 whole entry, species assumed): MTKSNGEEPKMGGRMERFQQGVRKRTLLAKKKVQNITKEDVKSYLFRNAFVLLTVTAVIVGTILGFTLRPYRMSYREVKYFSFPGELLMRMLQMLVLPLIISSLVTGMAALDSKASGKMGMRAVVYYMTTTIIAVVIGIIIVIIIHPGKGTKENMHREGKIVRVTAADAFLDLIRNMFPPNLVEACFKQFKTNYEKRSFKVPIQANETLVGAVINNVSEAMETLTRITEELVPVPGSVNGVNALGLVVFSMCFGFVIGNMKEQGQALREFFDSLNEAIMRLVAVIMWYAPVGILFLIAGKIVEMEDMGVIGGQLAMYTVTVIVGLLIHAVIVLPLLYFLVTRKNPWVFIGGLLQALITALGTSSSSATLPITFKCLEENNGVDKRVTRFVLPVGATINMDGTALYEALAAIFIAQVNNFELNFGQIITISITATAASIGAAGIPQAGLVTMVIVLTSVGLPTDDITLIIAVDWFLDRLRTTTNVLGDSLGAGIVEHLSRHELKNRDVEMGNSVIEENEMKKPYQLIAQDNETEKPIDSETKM
Method: as §1, §2, §3

hASCT1 = molecular target: T5, hASCT1 (Homo sapiens, UniProt P43007); test: Electrophysiology (whole-cell current recording) of transfected HEK293 cells, hASCT1; conditions: apparent Ki in the absence of substrate, HEK293, mean ± SD; read-out: Ki hASCT1
T5 construct: expressed in transfected cells; host or cells: HEK293 (ATCC CRL-11268), transient transfection
T5 sequence (P43007 1-532): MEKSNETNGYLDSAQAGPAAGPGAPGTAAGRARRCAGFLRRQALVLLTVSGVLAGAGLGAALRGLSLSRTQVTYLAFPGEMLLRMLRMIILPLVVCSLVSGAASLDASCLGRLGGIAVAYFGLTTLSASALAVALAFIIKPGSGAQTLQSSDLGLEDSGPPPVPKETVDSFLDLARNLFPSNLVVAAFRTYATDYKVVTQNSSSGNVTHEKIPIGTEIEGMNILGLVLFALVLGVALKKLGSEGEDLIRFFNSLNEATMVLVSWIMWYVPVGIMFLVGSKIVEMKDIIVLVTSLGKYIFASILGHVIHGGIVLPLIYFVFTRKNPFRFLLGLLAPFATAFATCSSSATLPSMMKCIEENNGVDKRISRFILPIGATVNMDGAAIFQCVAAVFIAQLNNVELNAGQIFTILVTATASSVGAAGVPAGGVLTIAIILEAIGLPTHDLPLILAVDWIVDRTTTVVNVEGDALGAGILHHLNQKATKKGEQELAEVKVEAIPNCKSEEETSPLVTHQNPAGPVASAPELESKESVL
Method: as §1, §2, §3

hASCT2 [4] = molecular target: T1, hASCT2; test: Electrophysiology (whole-cell current recording) of transfected HEK293 cells, hASCT2; conditions: apparent Ki in the absence of substrate, HEK293, mean ± SD; read-out: Ki hASCT2
Method: as §1, §2, §3

EAAT5 = molecular target: T6, EAAT5 (Homo sapiens, UniProt O00341); test: Electrophysiology specificity experiment in transfected HEK293 cells, EAAT5; conditions: apparent Ki, HEK293, internal solution 10 mM glutamate, mean ± SD
T6 construct: expressed in transfected cells; host or cells: HEK293 (ATCC CRL-11268), transient transfection
T6 sequence (O00341 whole entry, species assumed): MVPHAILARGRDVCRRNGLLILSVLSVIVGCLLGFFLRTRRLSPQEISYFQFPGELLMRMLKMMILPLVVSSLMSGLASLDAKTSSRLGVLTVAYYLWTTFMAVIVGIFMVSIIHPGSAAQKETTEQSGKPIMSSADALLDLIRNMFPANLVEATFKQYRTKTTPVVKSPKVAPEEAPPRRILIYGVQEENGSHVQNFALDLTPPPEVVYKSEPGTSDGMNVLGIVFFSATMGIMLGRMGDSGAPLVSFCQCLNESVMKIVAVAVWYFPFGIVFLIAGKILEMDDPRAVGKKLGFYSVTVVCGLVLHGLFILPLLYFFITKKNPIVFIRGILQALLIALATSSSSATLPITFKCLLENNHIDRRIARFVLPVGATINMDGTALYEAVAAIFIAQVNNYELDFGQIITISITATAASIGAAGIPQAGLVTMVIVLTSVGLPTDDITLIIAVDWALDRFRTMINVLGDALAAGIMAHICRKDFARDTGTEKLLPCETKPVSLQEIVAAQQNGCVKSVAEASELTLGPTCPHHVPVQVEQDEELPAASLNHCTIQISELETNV
Method: as §1, §2, §3

EAAC1 = molecular target: T7, EAAC1 (UniProt P51907); test: Electrophysiology specificity experiment in transfected HEK293 cells, EAAC1; conditions: apparent Ki, HEK293, internal solution 10 mM glutamate, mean ± SD
T7 construct: Ki EAAC1; other: apparent Ki, HEK293, internal solution 10 mM glutamate, mean ± SD
T7 sequence (P51907 1-523): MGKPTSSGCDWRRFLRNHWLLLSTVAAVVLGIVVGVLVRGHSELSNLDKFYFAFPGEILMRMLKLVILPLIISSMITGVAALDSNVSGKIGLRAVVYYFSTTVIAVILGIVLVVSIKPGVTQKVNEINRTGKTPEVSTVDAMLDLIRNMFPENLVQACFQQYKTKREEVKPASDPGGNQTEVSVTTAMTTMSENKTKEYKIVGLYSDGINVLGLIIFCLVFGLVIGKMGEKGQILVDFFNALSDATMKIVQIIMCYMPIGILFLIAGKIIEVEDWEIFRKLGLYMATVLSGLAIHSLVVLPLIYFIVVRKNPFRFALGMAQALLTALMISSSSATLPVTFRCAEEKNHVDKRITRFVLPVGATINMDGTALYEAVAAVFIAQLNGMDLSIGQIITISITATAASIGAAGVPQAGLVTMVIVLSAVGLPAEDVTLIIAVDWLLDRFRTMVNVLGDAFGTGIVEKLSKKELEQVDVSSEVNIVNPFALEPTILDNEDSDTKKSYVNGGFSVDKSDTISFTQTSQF
Method: Cells were maintained at 37° C. in a fully humidified atmosphere containing 5% CO2. rASCT2, hASCT2, hASCT1, EAAT1, EAAT2, EAAC1, EAAT5 and YFP complementary DNAs were each used to transiently transfect HEK293 using POLYPLUS Jet-prime transfection reagent. Cells were analyzed using electrophysiological techniques 24-40 hours after transfection.
as §2
as §3, with “The figures show representative current traces and dose-response curves for hACST2 and rASCT2, used to obtain Ki values in TABLE 2 for compound SN 40.” left out

Compound	Competition Expt % block (given as a decimal): hASCT2 (hASCT2 [1]; decimal fraction)	Ki (hASCT2 [1]; read-out: Competition Expt (h/rASCT2 Ki): hASCT2 Ki) [µM]	Competition Expt % block (given as a decimal): rASCT2 (rASCT2 [2]; decimal fraction)	Ki (rASCT2 [2]; read-out: Competition Expt (h/rASCT2 Ki): rASCT2 Ki) [µM]	Ki (EAAT2) [µM]	Ki (rASCT2 [3]) [µM]	Ki (EAAT1) [µM]	Ki (hASCT1) [µM]	Ki (hASCT2 [4]) [µM]	Ki (EAAT5) [µM]	Ki (EAAC1) [µM]
O=C(O[C@@]1(CO)CN[C@H](C(=O)O)C1)c1ccc(-c2ccccc2)cc1 [SN77]	0.5	20.3	0.5	12.9							
O=C(O[C@@H]1CN[C@H](C(=O)O)C1)c1ccc(C(=O)c2ccccc2)cc1 [SN 12]					15.4 ± 4.9	6.66 ± 1.2	21.2 ± 4.5	6.86 ± 1.1	21.4 ± 3.2	13.8 ± 2.7	

Further lines, results first:

Competition Expt % block (given as a decimal): hASCT2 (hASCT2 [1]; decimal fraction)	Ki (hASCT2 [1]; read-out: Competition Expt (h/rASCT2 Ki): hASCT2 Ki) [µM]	Competition Expt % block (given as a decimal): rASCT2 (rASCT2 [2]; decimal fraction)	Ki (rASCT2 [2]; read-out: Competition Expt (h/rASCT2 Ki): rASCT2 Ki) [µM]	Ki (EAAT2) [µM]	Ki (rASCT2 [3]) [µM]	Ki (EAAT1) [µM]	Ki (hASCT1) [µM]	Ki (hASCT2 [4]) [µM]	Ki (EAAT5) [µM]	Ki (EAAC1) [µM]	Compound
					0.11 ± 0.04	49.4 ± 9.7	10.1 ± 0.6	0.39 ± 0.1	566 ± 188		O=C(Nc1cccc(C(=O)O[C@@H]2CN[C@H](C(=O)O)C2)c1)c1ccccc1 [SN 16]
				5.55 ± 1.7	7.29 ± 1.8	2.94 ± 0.4		2.42 ± 0.1	5.55 ± 0.7	24.4 ± 2.5	O=C(O)[C@@H]1C[C@H](NCc2ccc(-c3ccccc3)cc2)CN1 [SN 40]
					1.34 ± 0.1	2.71 ± 0.7		1.61 ± 0.2		20.1 ± 6.2	O=C(O)[C@H]1NC[C@@H](NCc2ccc(-c3ccccc3)cc2)[C@@H]1O [SN 50]
